Source: PubChem BioAssay AID720587 (Broad Institute, 2013)

System: A673 Ewing sarcoma viability, CellTiter-Glo ATP luminescence, 72 h
Assay: A673 Ewing sarcoma viability loss – cell-based, CellTiter-Glo luminescence, cherry-pick retest, confirmation (AID 720587)

Compound | AC35 [µM]
COC(=O)Cc1[nH]n(-c2nc3ccccc3s2)c(=O)c1C(C)=Nc1ccc(OC)cc1 | 19.2
CCc1ccc(/C=C2\SC(=S)N(CCCC(=O)N3CCN(C)CC3)C2=O)cc1 | 13.1
O=C(CCc1ccccc1)NC(c1cccs1)c1cc(Cl)c2cccnc2c1O (stereo unspecified) | 0.694
COc1ccccc1-c1ccc(OCCCN2CCC(C(O)(c3ccccc3)c3ccccc3)CC2)cc1 | 9.43
O=c1ccc2[n+]([O-])c3ccc(O)cc3oc-2c1 | 8.92
O=C1NC(=O)N(Cc2ccccc2)C(=O)/C1=C\C=C\c1ccco1 | 5.05
CN(C)c1ccc2c(c1)[C@@H]1C[C@@H](CC(=O)NCc3ccc(Oc4ccccc4)cc3)O[C@H](CO)[C@@H]1O2 | 12.8
O=C1Nc2cc(C(=O)NCCN3CCCCCC3)ccc2S/C1=C\c1ccccc1 | 8.37
BrC(=C\c1ccccc1)/C=N/n1cnnc1 | 2.23
O=C(NC1CCCC1)N1CCCCN2[C@@H](CO)[C@@H](c3ccc(/C=C/c4ccccc4)cc3)[C@@H]2C1 | 7.8
CC12CCC3C(CCC4(O)CC(O)CCC34C=NO)C1(O)CCC2C1=COC(=O)C1 (stereo unspecified) | 0.251
Cc1ccccc1NC(=O)C(=Cc1ccc(C(=O)O)cc1)C(=O)Nc1ccccc1C | 5.97
CC[C@@H]1C[C@H]2CC[C@H](O2)[C@H](C)C(=O)O[C@@H](C)C[C@@H]2CC[C@@H](O2)[C@@H](C)C(=O)O[C@H](C)C[C@H]2CC[C@H](O2)[C@H](C)C(=O)O[C@@H](C)C[C@@H]2CC[C@@H](O2)[C@@H](C)C(=O)O1 | 0.243
Nc1nc(=S)c2[nH]cnc2[nH]1 | 0.814
O=C(c1nnsc1S(=O)c1ccc(Cl)cc1)N1CCOCC1 (stereo unspecified) | 5.46
C[C@@H]1CN([C@@H](C)CO)C(=O)c2cc(NS(=O)(=O)c3ccccc3)ccc2O[C@@H]1CN(C)Cc1ccc(C(=O)Nc2ccccc2N)cc1 | 8.39
Cc1ccc(C(=O)O/N=C(\N)c2ccccn2)cc1 | 17.7
O=C1NC(=S)NC(=O)C1=Cc1cccn1-c1ccc(O)cc1 | 17.7
COCCOC(=O)N1C(=O)[C@@]2(c3cc(C#CCC(C(=O)OC)C(=O)OC)ccc31)[C@H](c1ccccc1OCCO)N1[C@H](c3ccccc3)[C@H](c3ccccc3)OC(=O)[C@H]1[C@@H]2C(=O)N1CCN(c2ncccn2)CC1 | 5.04
O=C(N/N=C/c1ccc[nH]1)c1cc(-c2ccc(Cl)cc2)nc2ccccc12 | 11.6
Cc1nc(N)nc(N)c1-c1ccc(Cl)c(Cl)c1 | 0.928
COC(=O)C[C@@H]1CC[C@@H]2[C@H](COc3ccc(NC(=O)c4cc(C)on4)cc3C(=O)N2C)O1 | 14.5
CC(C)(C)C(=O)Cn1ncc(Cl)c(Cl)c1=O | 2.73

Compound | AC35 [µM]
C[C@@H]1CN([C@@H](C)CO)S(=O)(=O)c2ccc(C#CC(C)(C)O)cc2O[C@H]1CN(C)Cc1ccc(-c2ccccc2)cc1 | 5.75
O=c1cc(CN2CCN(Cc3ccccc3)CC2)c2ccc(O)c(O)c2o1 | 8.02
COc1cc(/C=C/C(=O)/C=C(O)/C=C/c2ccc(O)c(OC)c2)ccc1O | 2.13
O=C(Nc1ccccc1F)N1CCCCN2[C@H](CO)[C@H](c3ccc(/C=C/c4ccccc4)cc3)[C@H]2C1 | 3.64
Cc1nc2ncccn2c1-c1csc(Nc2ccc(O)cc2)n1 | 1.35
CC(C)=CCC/C(C)=C/CN1C(=O)N(c2ccc(F)cc2)[C@H]2C[C@@H](c3ccccc3)[C@@H](C)[C@@H](C(=O)N3CCOCC3)C[C@H]21 | 5.03
COc1cc(-c2cnc3c(NC=O)cc(-c4cccc(NC(C)=O)c4)cn23)cc(OC)c1OC | 0.371
CN1C(=O)c2cc(NC(=O)c3ccc(C(F)(F)F)cc3)ccc2OC[C@@H]2O[C@@H](CC(=O)NC3Cc4ccccc4C3)CC[C@H]21 | 4.43
COC(=O)C[C@@H]1CC[C@@H]2[C@@H](COc3ccc(NC(=O)Nc4cccc(F)c4)cc3C(=O)N2C)O1 | 13.5
Nc1cc2c(cc1Br)[nH]c(=O)c1ccccc12 | 16.6
C[C@H]1CN([C@@H](C)CO)S(=O)(=O)c2ccc(C#Cc3ccncc3)cc2O[C@@H]1CN(C)C(=O)Nc1ccc2c(c1)OCO2 | 0.64
Cc1cc(C)c2sc(NNC(=O)c3ccc(S(=O)(=O)N4CCc5ccccc5C4)cc3)nc2c1 | 1.19
COc1ccc(C2=NNC(=Nc3cc(S(=O)(=O)N(C)C)ccc3C)SC2)c(OC)c1 | 20.5
CN(C)c1ncnc2c1ccn2C1OC(CO)C(O)C1O (stereo unspecified) | 2.94
O=c1c(Cl)cc(Cl)nn1-c1ccccc1 | 5.55
O=C1c2ccccc2C(=O)c2cc(N3CCCCC3)ccc21 | 16.8
COc1ccc(OC)c(/C=C/c2ccnc3ccccc23)c1 | 1.7
Cc1nc(N)nc(N)c1/C=C/C(C)(C)c1ccc(Cl)cc1 | < 0.011
CCOc1cc(/C=N/Nc2cc(C)nc(-n3nc(C)cc3C)n2)ccc1O | 1.77
COc1ccc(OC)c(-c2nnc3n2N=C(c2ccc(OC)c(OC4CCCC4)c2)CS3)c1 | 2.71
N#CC1=C(N)Oc2cc(N)ccc2C1c1cccc(F)c1 (stereo unspecified) | 3.12
CCc1ccc(S(=O)(=O)c2ccc(-n3nc(C)cc3N)cc2)cc1 | 17.8
Cc1cccc(/C=N/Nc2ccc3ccccc3n2)c1 | 18.9
